From patent US6683079B2, “3-(amino-or aminoalkyl) pyridinone derivatives and their use for the treatment of HIV related diseases” (Centre National de la Recherche Scientifique, priority 1998, dated 2004)

Key:
HIV-1 strain 103 N = test: Retrovirucidal effect on HIV-1 strain 103 N (Table 3); type: cell-based
Method: (§1) HIV-1 viral suspensions were obtained by coculture of MT4 cells and H9 cells chronically infected by HIV-ILai isolate. 200 μl of a cell supernatant containing viral particles (HIV-ILai: 100 TCID50) were incubated at room temperature with various concentrations of different inhibitors. After 3 hours, virions were washed through 0.02 μm anopore membrane in 1.5 mL Vectaspin tube (Whatman) for 10 minutes at 5 000 g. Each of the three subsequent washes was performed in the same conditions after the viral concentrate was refilled with 500 μL of RPMI medium. Then, the viral concentrate was readjusted to the initial volume with RPMI plus 10% foetal calf serum (FCS). The residual infectivity was assayed on P4 cells as described by CHARNEAU et al. (1994, J. Mol. Biol., 241, 651-662). Briefly, P4 cells were plated using 100 μL of DMEM medium plus 10% FCS in 96 plate multi-wells at 20×10^5 cells per mL. After overnight incubation at 37° C., the supernatant was discarded and the viral preparation (200 μL) was added. One day later the wells were washed three times in PBS. Each well was refilled with 200 μL of a reaction buffer containing 50 mM Tris-HCl pH 8.5, 100 mM 2-mercaptoethanol, 0.05% Triton X-100 and 5 mM 4-methylumbelliferyl β-D-galactopyranoside (MUG). After 3 hours at 37° C., the level of the reaction was measured in a fluorescence microplate reader.
(§2) The retrovirucidal effect of each pyridinone derivative listed in table 3 has been assayed according to the teachings of example 2, excepted that the anti-viral effect has been tested on the two following HIV-1 strains:
b) HIV-1 strain 103 N which is a mutant strain bearing a point mutation in the reverse transcriptase gene leading to an enzyme wherein the initial Lys-103 residue is replaced for a Asn residue.
The HIV-1 103 N strain has also been described by SAHLBERG et al.,(1998, Antiviral Res., 37 (3): ASS) and BALZARiNI et al. (1996, Antimicrobial Agents and Chemotherapy, 40 (6): 1454-1466).

HIV-1 strain IIIB = test: Retrovirucidal effect on HIV-1 strain IIIB (Table 3); type: cell-based
Method: as §1, §2
a) HIV-1 strain IIIB (see example 2);

[1] = HIV-1 strain 103N (RT Lys-103 to Asn mutant), pIC50=-log IC50, IC50 in M

| SMILES | HIV1 pIC50 strain 103N (HIV-1 strain 103 N; [1]) | HIV1 pIC50 strain IIIB (HIV-1 strain IIIB; pIC50=-log IC50, IC50 in M) | HIV1 pIC50 strain 103N (HIV-1 strain 103 N; retrovirucidal effect, HIV-1 strain 103N (Lys-103 to Asn RT mutant), pIC50=-log IC50 (M)) | HIV1 pIC50 strain IIIB (HIV-1 strain IIIB; retrovirucidal effect, pIC50=-log IC50 (M)) |
| --- | --- | --- | --- | --- |
| CCc1c(C)[nH]c(=O)c(N(C)C)c1C(=O)c1cc(Br)cs1 [Compound 187] | 7.006 | 8.481 |  |  |
| CCc1c(C)[nH]c(=O)c(N(C)C)c1Cc1cccc(C)c1 [Compound 13] | 7.622 | 8.824 |  |  |
| Cc1cc(C)cc(Cc2cc(CCC(C)C)[nH]c(=O)c2N(C)C)c1 [Compound 77] | <4 | 5.827 |  |  |
| CCc1c(C)[nH]c(=O)c(N)c1Cc1ccc(C(F)(F)F)cc1 [Compound 52] | <5 | <4 |  |  |
| CCc1[nH]c(=O)c(N)c(Cc2cc(C)cc(C)c2)c1C [Compound 27] | 5.098 | 5.949 |  |  |
| CCc1c(C)[nH]c(=O)c(N(C)CCCCCO)c1Cc1cc(C)cc(C)c1 [Compound 123] | 6.918 | 8.444 |  |  |
| CCc1c(C)[nH]c(=O)c(N(C)C)c1CNc1cccc(C)c1 [Compound 163] | 4.236 | 5.596 |  |  |
| CCCc1c(C)[nH]c(=O)c(N(C)C)c1Cc1cc(C)cc(C)c1 [Compound 71] | 7.049 | 7.777 |  |  |
| CCc1c(C)[nH]c(=O)c(N(C)C)c1Cc1cccc(F)c1 [Compound 42] | 7.18 | 8.569 |  |  |
| CCc1c(C)[nH]c(=O)c(N(C)C)c1Cc1cccc(C)c1C [Compound 20] | 5.585 | 6.926 |  |  |
| CCc1c(C)[nH]c(=O)c(N)c1Cc1cccc(C)c1 [Compound 9] | 5.103 | 5.373 |  |  |
| CCc1c(C)[nH]c(=O)c(N(C)C)c1Cc1cc(Cl)cc(Cl)c1 [Compound 191] | 7.553 | 8.097 |  |  |
| CCc1c(C)[nH]c(=O)c(N(C)C)c1C(O)Cc1cccc(C)c1 (stereo not shown) [Compound 165] | <4 | 4.354 |  |  |
| CCc1c(C)[nH]c(=O)c(N)c1Cc1nccn1C [Compound 84] | <4 | <4 |  |  |
| CCc1c(C)[nH]c(=O)c(N(C)C)c1Oc1cc(C)cc(C)c1 [Compound 201] |  |  | 7.231 | 8.585 |
| CCc1c(C)[nH]c(=O)c(N(C)CC(C)C)c1Cc1cc(C)cc(C)c1 [Compound 62] | 5.305 | 6.604 |  |  |
| CCc1c(C)[nH]c(=O)c(N(C)CCCSC)c1Cc1cc(C)cc(C)c1 [Compound 61] | 5.922 | 7.693 |  |  |
| CCc1c(C)[nH]c(=O)c(N)c1Cc1c(C)cc(C)cc1C [Compound 58] | <5 | <4 |  |  |
| Cc1cc(C)cc(Cc2cc(CCC(C)C)[nH]c(=O)c2N)c1 [Compound 76] | <4 | <5.494 |  |  |
| CCc1c(C)[nH]c(=O)c(N(C)C)c1Cc1cccc(Cl)c1 [Compound 40] | 7.412 | 8.585 |  |  |
| Cc1cc(C)cc(Cc2cc[nH]c(=O)c2N)c1 [Compound 15] | 4.138 | <4.17 |  |  |
| CCc1c(C)[nH]c(=O)c(N)c1C(=O)c1cccs1 [Compound 177] | <4 | 5.106 |  |  |
| CCc1c(C)[nH]c(=O)c(N(Cc2ccccc2)Cc2ccccc2)c1Cc1cc(C)cc(C)c1 [Compound 25] | 4.259 | <4 |  |  |
| CCc1c(C)[nH]c(=O)c(N(C)CCOC)c1Cc1cccc(C)c1 [Compound 136] | 6.996 | 9 |  |  |

| SMILES | HIV1 pIC50 strain 103N (HIV-1 strain 103 N; [1]) | HIV1 pIC50 strain IIIB (HIV-1 strain IIIB; pIC50=-log IC50, IC50 in M) | HIV1 pIC50 strain 103N (HIV-1 strain 103 N; retrovirucidal effect, HIV-1 strain 103N (Lys-103 to Asn RT mutant), pIC50=-log IC50 (M)) | HIV1 pIC50 strain IIIB (HIV-1 strain IIIB; retrovirucidal effect, pIC50=-log IC50 (M)) |
| --- | --- | --- | --- | --- |
| CCc1c(C)[nH]c(=O)c(N(C)C)c1Cc1cccc(Br)c1 [Compound 60] | 7.001 | 8.444 |  |  |
| CCc1c(C)[nH]c(=O)c(N(C)CC)c1C(=O)c1cccc(Br)c1 [Compound 185] | 7.433 | 8.745 |  |  |
| CCCCNc1c(Cc2cc(C)cc(C)c2)c(CC)c(C)[nH]c1=O [Compound 69] | 5.655 | 6.891 |  |  |
| CCCN(C)c1c(Cc2cc(C)cc(C)c2)c(CC)c(C)[nH]c1=O [Compound 47] | 6.968 | 7.767 |  |  |
| CCc1c(C)[nH]c(=O)c(N(C)CC)c1Cc1cc(C)cc(C)c1 [Compound 56] | 7.11 | 8.194 |  |  |
| CCc1c(C)[nH]c(=O)c(N(C)CCO)c1Cc1cccc(C)c1 [Compound 145] | 6.028 | 8.42 |  |  |
| CCc1c(C)[nH]c(=O)c(N(C)C)c1Cc1cc(C)ccc1C [Compound 37] | 5.729 | 6.796 |  |  |
| CCc1c(C)[nH]c(=O)c(N)c1Cc1ccc2ccccc2c1 [Compound 7] | <4 | <4 |  |  |
| CCc1c(C)[nH]c(=O)c(N(C)C)c1Cc1c(C)cc(C)cc1C [Compound 59] | <5 | 5.029 |  |  |
| CCc1c(C)[nH]c(=O)c(N)c1CN(C)Cc1ccccc1 [Compound 97] | <4 | <4 |  |  |
| CCc1c(C)[nH]c(=O)c(N)c1C(=O)c1ccc(OC)c(C)c1 [Compound 168] | 4.806 | 4.525 |  |  |
| Cc1cc(C)cc(Cc2c(C)c(C)[nH]c(=O)c2N(C)C)c1 [Compound 33] | 6.286 | 8.42 |  |  |
| CCc1c(C)[nH]c(=O)c(N)c1Cc1cccc(C(F)(F)F)c1 [Compound 50] | <5 | <5 |  |  |
| CCc1[nH]c(=O)c(N(C)C)c(Cc2cc(C)cc(C)c2)c1C [Compound 28] | 6.943 | 8.032 |  |  |
| CCc1c(C)[nH]c(=O)c(N(C)C)c1C(=O)c1ccc(C)o1 [Compound 158] | 6.625 | 8.041 |  |  |
| CCc1c(C)[nH]c(=O)c(N)c1Cc1ccc(-c2ccccc2)cc1 [Compound 49] | <5 | <4 |  |  |
| CCc1c(C)[nH]c(=O)c(N(C)C)c1C(=O)c1cccs1 [Compound 178] | 6.461 | 7.873 |  |  |
| CCc1c(C)[nH]c(=O)c(N(C)C)c1Cc1cccc(OC)c1 [Compound 121] | 6.948 | 8.469 |  |  |
| CCc1c(C)[nH]c(=O)c(N)c1C(=O)c1cc(C)cc(C)c1 [Compound 2] | 6.64 | 6.612 |  |  |
| CCCc1[nH]c(=O)c(N(C)C)c(Cc2cc(C)cc(C)c2)c1C [Compound 63] | 6.334 | 7.029 |  |  |
| CCc1c(C)[nH]c(=O)c(N(C)C)c1C(=O)c1cc(C)cc(C)c1 [Compound 35] | 7.987 | 8.585 |  |  |
| CCc1c(C)[nH]c(=O)c(N(C)C)c1Cc1ccccc1Cl [Compound 65] | 6.405 | 8.284 |  |  |
| CCc1c(C)[nH]c(=O)c(N)c1Cc1cccc(Cl)c1 [Compound 39] | 4.751 | 5 |  |  |
